In article PMC11851430, “Workflow for E3 Ligase Ligand Validation for PROTAC Development” (ACS Chemical Biology, 2025):

Columns and labels:
[1] = biological target: T1, STK17B (Homo sapiens, UniProt O94768); test: DSF assay; type: binding; conditions: 20 µM compound
T1 construct: purchased in-house DSF panel (SGC-style construct names; the trailing A/B is a construct suffix)
T1 sequence (O94768 25-329): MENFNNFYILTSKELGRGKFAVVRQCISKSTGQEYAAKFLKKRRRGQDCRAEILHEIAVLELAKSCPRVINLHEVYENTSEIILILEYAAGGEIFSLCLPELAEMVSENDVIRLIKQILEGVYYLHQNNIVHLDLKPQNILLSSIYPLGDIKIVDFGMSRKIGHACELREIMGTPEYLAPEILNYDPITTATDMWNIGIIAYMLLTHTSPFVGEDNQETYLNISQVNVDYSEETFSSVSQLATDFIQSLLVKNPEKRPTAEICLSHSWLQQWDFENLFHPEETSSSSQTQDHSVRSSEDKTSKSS

[2] = biological target: T2, CASKA (Homo sapiens, UniProt O14936); test: DSF assay; type: binding; conditions: 20 µM compound
T2 construct: purchased in-house DSF panel (SGC-style construct names; the trailing A/B is a construct suffix)
T2 sequence (O14936 1-337): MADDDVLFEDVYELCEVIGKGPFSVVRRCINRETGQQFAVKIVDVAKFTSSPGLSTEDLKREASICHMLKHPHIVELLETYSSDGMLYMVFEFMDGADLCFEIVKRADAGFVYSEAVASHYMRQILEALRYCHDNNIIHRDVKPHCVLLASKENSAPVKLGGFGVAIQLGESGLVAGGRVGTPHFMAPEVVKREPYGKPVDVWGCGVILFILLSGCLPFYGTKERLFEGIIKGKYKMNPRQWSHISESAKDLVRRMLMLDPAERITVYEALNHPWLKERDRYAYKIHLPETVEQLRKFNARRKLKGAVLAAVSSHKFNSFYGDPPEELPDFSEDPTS

[3] = biological target: T3, PLK4A (Homo sapiens, UniProt O00444); test: DSF assay; type: binding; conditions: 20 µM compound
T3 construct: purchased in-house DSF panel (SGC-style construct names; the trailing A/B is a construct suffix)
T3 sequence (O00444 2-275): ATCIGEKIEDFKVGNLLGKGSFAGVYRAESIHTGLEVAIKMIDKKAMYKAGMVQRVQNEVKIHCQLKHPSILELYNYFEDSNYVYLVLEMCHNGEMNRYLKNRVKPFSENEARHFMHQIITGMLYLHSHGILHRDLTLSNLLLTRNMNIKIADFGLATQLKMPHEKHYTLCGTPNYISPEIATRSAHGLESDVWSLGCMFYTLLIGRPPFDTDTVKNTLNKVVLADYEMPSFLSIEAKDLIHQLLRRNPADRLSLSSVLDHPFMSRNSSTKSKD

[4] = biological target: T4, STK3A (Homo sapiens, UniProt Q13188); test: DSF assay; type: binding; conditions: 20 µM compound
T4 construct: purchased in-house DSF panel (SGC-style construct names; the trailing A/B is a construct suffix)
T4 sequence (Q13188 16-313): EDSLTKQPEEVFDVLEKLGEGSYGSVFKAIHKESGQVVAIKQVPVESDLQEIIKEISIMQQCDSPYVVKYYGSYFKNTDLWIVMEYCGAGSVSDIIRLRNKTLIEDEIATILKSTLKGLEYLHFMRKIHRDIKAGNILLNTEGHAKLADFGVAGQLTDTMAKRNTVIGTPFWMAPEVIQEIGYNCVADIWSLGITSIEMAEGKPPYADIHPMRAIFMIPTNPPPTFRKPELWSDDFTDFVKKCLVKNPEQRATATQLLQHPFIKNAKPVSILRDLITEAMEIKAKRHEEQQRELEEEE

[5] = biological target: T5, ITK^HiBiT (Homo sapiens, UniProt Q08881); test: HiBiT assay, Jurkat cells expressing ITK^HiBiT; type: cell-based; conditions: 6 h
T5 construct: HiBiT-ITK construct was cloned by PCR amplification of vector containing full-length; expressed in transfected cells
T5 sequence (Q08881 1-620): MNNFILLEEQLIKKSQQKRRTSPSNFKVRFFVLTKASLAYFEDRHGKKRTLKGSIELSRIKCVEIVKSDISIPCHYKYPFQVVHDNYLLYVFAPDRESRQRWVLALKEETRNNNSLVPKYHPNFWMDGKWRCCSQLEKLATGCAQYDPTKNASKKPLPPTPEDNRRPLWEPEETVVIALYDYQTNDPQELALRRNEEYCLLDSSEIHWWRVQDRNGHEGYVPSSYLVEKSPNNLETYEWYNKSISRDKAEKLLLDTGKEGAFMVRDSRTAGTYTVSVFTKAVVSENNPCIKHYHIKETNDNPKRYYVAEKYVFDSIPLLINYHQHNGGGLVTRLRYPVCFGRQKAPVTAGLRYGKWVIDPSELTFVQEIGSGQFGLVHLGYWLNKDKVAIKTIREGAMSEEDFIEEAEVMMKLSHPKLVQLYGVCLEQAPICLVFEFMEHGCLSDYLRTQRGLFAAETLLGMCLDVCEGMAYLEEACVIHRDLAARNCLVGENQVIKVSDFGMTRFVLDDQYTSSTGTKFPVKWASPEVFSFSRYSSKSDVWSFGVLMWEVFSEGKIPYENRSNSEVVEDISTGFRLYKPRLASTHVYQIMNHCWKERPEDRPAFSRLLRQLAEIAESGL
Experimental: Cell culture. Human MV4-11 ([…]) and human Jurkat ([…]) cells were cultured in RPMI- […]
1640 medium whereas human HEK293 ([…]) cells were cultured in DMEM medium at 37 °C in 5% CO2. Both media were supplemented with 10% FBS and 1% penicillin/streptomycin.
Cloning. HiBiT-ITK construct was cloned by PCR amplification of vector containing full-length
ITK. The PCR product was inserted into pRRL-PGK-HiBiT entry vector using AgeI/MluI sites.
The following primers were used for cloning HiBiT-ITK; forward: […]
Cell line generation. The stable cell line MV4-11 AURORA−HiBiT was generated as previously described.14 Lentiviral infection was used to generate the stable Jurkat HiBiT cell line.
Lentivirus was produced using plasmids psPAX2, pMD2.G, and HiBiT-ITK plasmid in HEK293 cells. Jurkat cells were infected with filtered virus supernatant and selected after 48 h of infection for the generation of the stable JurkatITK-HiBiT cell line.
HiBiT Measurements. HiBiT assay was performed as described previously. 14 Briefly, MV4-11 and Jurkat HiBiT cells were seeded and treated with compounds for the indicated time. Nano-Glo HiBiT Lytic Detection System (Promega) was used for the assay and luminescence was measured on a Tecan Spark Multiplate reader (Tecan). DC50s were calculated using the dose-response (four parameters) equation in Prism (GraphPad).

Row | SMILES | ΔTm at 20 µM [1] [°C] | ΔTm at 20 µM [2] [°C] | ΔTm at 20 µM [3] [°C] | ΔTm at 20 µM [4] [°C] | DC50 [5] [nM] | Dmax [5] [%] | concentration at which a hook effect was observed [5] [µM]
1 | CCOC(=O)c1cc(Nc2cc(C3CC3)[nH]n2)nc(Nc2ccc(CC#N)cc2)n1 [compound 5] | 2.58 | 1.91 | 13.2 | 9.87 | – | – | –
2 | CC(C)(C)OC(=O)NCCCOCCOCCOCCCNC(=O)c1cc(Nc2cc(C3CC3)[nH]n2)nc(Nc2ccc(CC#N)cc2)n1 [5-L] | 1.81 | 1.29 | 11.6 | 8.81 | – | – | –
3 | Cc1ncsc1-c1ccc(CNC(=O)[C@@H]2C[C@@H](O)CN2C(=O)[C@@H](NC(=O)CCOCCOCCOCCOCCN2CCN(c3ccc(Nc4ncc(Cl)c(Nc5ccccc5C(N)=O)n4)cc3)CC2)C(C)(C)C)cc1 [6-b] | – | – | – | – | 42 | ≤ 71 | > 1
4 | Cc1ncsc1-c1ccc(CNC(=O)[C@@H]2C[C@@H](O)CN2C(=O)[C@@H](NC(=O)CCOCCOCCOCCN2CCN(c3cc(Nc4cc(C5CC5)[nH]n4)nc(Nc4ccc(CC#N)cc4)n3)CC2)C(C)(C)C)cc1 [4-a] | – | – | – | – | 937 | ≤ 71 | –
5 | CC(C)(C)OC(=O)NCCOCCOCCOCCOCCC(=O)N1CCN(c2cc(Nc3cc(C4CC4)[nH]n3)nc(Nc3ccc(CC#N)cc3)n2)CC1 [4-L] | 1.6 | -0.0121 | 16.1 | 8.18 | – | – | –
